We go through 18 compounds from patent US9499538B2, “Estrogen receptor modulators and uses thereof” (Seragon Pharmaceuticals, Inc., priority 2012, dated 2016).

One experiment has as its system MCF-7 cells. The experiment in a line: Breast Cancer Cell Viability Assays (MCF-7, CellTiter-Glo). It counts as cell-based. As to conditions: 5 days' compound exposure; for IC50: Homo sapiens, MCF7, 120 h. An outline of the steps:
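Percent viability, background-subtracted against untreated wells, was taken from CellTiter-Glo luminescence after 5 days' exposure of MCF-7 cells. Compounds were tested at eleven semilog concentrations, final 0.3–0.000003 μM, in RPMI containing 10% FBS.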
(ATP-based viability assays read luminescence as a measure of living cells.)

A further experiment addresses T1, ER-α in MCF-7 cells (Homo sapiens, UniProt P03372).
T1 construct: endogenous in cells; host or cells: MCF-7
T1 sequence (P03372 1-595): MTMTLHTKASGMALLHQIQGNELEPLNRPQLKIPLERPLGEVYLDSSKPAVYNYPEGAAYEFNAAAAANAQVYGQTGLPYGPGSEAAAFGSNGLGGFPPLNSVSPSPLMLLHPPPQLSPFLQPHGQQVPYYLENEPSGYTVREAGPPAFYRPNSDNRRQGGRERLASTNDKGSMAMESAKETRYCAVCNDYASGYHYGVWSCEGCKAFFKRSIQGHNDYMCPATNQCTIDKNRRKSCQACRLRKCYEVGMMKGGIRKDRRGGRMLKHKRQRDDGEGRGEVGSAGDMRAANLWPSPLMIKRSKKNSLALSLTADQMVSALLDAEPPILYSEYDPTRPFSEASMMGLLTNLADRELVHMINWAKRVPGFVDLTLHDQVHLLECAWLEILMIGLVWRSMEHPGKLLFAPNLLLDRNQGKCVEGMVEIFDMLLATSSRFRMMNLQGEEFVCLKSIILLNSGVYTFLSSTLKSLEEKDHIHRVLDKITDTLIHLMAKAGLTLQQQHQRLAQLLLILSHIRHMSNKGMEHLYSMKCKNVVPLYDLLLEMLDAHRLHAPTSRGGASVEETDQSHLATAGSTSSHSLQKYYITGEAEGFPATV
The experiment is described as follows: Breast Cancer Cell ER-α In Cell Western Assay (SP1). Format: cell-based. To be noted: 4 or 24 hr post compound addition; for Emax: MCF7, SP1 antibody, read-out: ER-α In Cell Western Assay (SP1) Max Response; for DC50: SP1 antibody, read-out: ER-α In Cell Western Assay (SP1) IC50. An outline of the steps: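 ER-α levels quantified by in-cell western: SP1 signal normalised to DRAQ5 DNA stain, relative to untreated cells (% ER). Compounds at 0.3–0.000003 μM final, 11-point semilog series, 4 or 24 h exposure of MCF-7 cells grown in charcoal-stripped serum.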

A word on the IC50: it is the concentration that gives 50% inhibition. Lower therefore signals inhibition by little substance. On to `O=C(O)/C=C/c1ccc(/C(=C(\c2cccc(-n3cccn3)c2)C2CCC2)c2ccc3[nH]nc(F)c3c2)cc1` [Example 84, (E)-3-(4-((E)-2-(3-(1H-Pyrazol-1-yl)phenyl)-2-cyclobutyl-1-(3-fluoro-1H-indazol-5-yl)vinyl)phenyl)acrylic acid], for which, in the experiment with MCF-7 cells, the “MCF7 Viability Assay Max Response” value was “++ (++ = a single % value ≧ 40%)” and the half-inhibitory concentration (IC50) is at most 100 nM. For the same compound, on ER-α in MCF-7 cells, the Emax is at least 40% and the DC50 was at most 100 nM.

For `COc1cc(C)c(/C(=C(\c2ccc(/C=C/C(=O)O)cc2)c2ccc3scnc3c2)C2CCC2)cn1` [Example 85, (E)-3-(4-((E)-1-(Benzo[d]thiazol-5-yl)-2-cyclobutyl-2-(6-methoxy-4-methylpyridin-3-yl)vinyl)phenyl)acrylic acid], in the experiment with MCF-7 cells, the “MCF7 Viability Assay Max Response” value is reported as “++ (++ = a single % value ≧ 40%)” and the concentration for half-maximal inhibition (IC50) is at most 100 nM. Also, on ER-α in MCF-7 cells, the Emax is at least 40% and the DC50 was at most 100 nM.

In the case of `Cc1sccc1/C(=C(\c1ccc(/C=C/C(=O)O)cc1)c1ccc2scnc2c1)C1CCC1` [Example 86, (E)-3-(4-((E)-1-(Benzo[d]thiazol-5-yl)-2-cyclobutyl-2-(2-methylthiophen-3-yl)vinyl)phenyl)acrylic acid], in the experiment on MCF-7 cells, the “MCF7 Viability Assay Max Response” value is “++ (++ = a single % value ≧ 40%)” and the IC50 was at most 100 nM. For the same compound, on ER-α in MCF-7 cells, the Emax was at least 40% and the DC50 is at most 100 nM.

In the case of `O=C(O)/C=C/c1ccc(/C(=C(\c2cccc(N3CCCC3)c2)C2CCC2)c2ccc3[nH]nc(F)c3c2)cc1` [Example 87, (E)-3-(4-((E)-2-Cyclobutyl-1-(3-fluoro-1H-indazol-5-yl)-2-(3-(pyrrolidin-1-yl)phenyl)vinyl)phenyl)acrylic acid], in the experiment with MCF-7 cells, the “MCF7 Viability Assay Max Response” value is recorded as “++ (++ = a single % value ≧ 40%)” and the IC50 is at most 100 nM. On ER-α in MCF-7 cells, the Emax was at least 40% and the DC50 is at most 100 nM.

Turning to `N#Cc1cscc1/C(=C(\c1ccc(/C=C/C(=O)O)cc1)c1ccc2scnc2c1)C1CCC1` [Example 88, (E)-3-(4-((E)-1-(Benzo[d]thiazol-5-yl)-2-(4-cyanothiophen-3-yl)-2-cyclobutylvinyl)phenyl)acrylic acid], in the experiment on MCF-7 cells, the “MCF7 Viability Assay Max Response” value is recorded as “++ (++ = a single % value ≧ 40%)” and the IC50 was at most 100 nM. Besides, at ER-α in MCF-7 cells, the Emax is at least 40% and the DC50 was at most 100 nM.

For the compound `COc1nccc(/C(=C(\c2ccc(/C=C/C(=O)O)cc2)c2ccc3[nH]nc(F)c3c2)C2CCC2)c1C` [Example 89, (E)-3-(4-((E)-2-Cyclobutyl-1-(3-fluoro-1H-indazol-5-yl)-2-(2-methoxy-3-methylpyridin-4-yl)vinyl)phenyl)acrylic acid], in the experiment with MCF-7 cells, the “MCF7 Viability Assay Max Response” value is “++ (++ = a single % value ≧ 40%)” and the IC50 was at most 100 nM. Also, on ER-α in MCF-7 cells, the Emax is at least 40% and the DC50 is at most 100 nM.

For `N#Cc1cc(F)ccc1/C(=C(\c1ccc(/C=C/C(=O)O)cc1)c1ccc2scnc2c1)C1CCC1` [Example 90, (E)-3-(4-((E)-1-(Benzo[d]thiazol-5-yl)-2-(2-cyano-4-fluorophenyl)-2-cyclobutylvinyl)phenyl)acrylic acid], in the experiment with MCF-7 cells, the “MCF7 Viability Assay Max Response” value is given as “++ (++ = a single % value ≧ 40%)” and the half-inhibitory concentration (IC50) is at most 100 nM. On ER-α in MCF-7 cells, the Emax was at least 40% and the DC50 was at most 100 nM.

Turning to `COc1ccc(/C(=C(\c2ccc(/C=C/C(=O)O)cc2)c2ccc3scnc3c2)C2CCC2)cc1` [Example 91, (E)-3-(4-((E)-1-(Benzo[d]thiazol-5-yl)-2-cyclobutyl-2-(4-methoxyphenyl)vinyl)phenyl)acrylic acid], in the experiment on MCF-7 cells, the “MCF7 Viability Assay Max Response” value is “++ (++ = a single % value ≧ 40%)” and the half-maximal inhibitory concentration (IC50) was at most 100 nM. Moreover, on ER-α in MCF-7 cells, the Emax is at least 40% and the DC50 was at most 100 nM.

On to `COc1cccc(/C(=C(\c2ccc(/C=C/C(=O)O)cc2)c2ccc3scnc3c2)C2CCC2)c1` [Example 92, (E)-3-(4-((E)-1-(Benzo[d]thiazol-5-yl)-2-cyclobutyl-2-(3-methoxyphenyl)vinyl)phenyl)acrylic acid], for which, in the experiment with MCF-7 cells, the “MCF7 Viability Assay Max Response” value is listed as “++ (++ = a single % value ≧ 40%)” and the IC50 was at most 100 nM. Besides, at ER-α in MCF-7 cells, the Emax was at least 40% and the DC50 is at most 100 nM.

With `COc1ccc(/C(=C(\c2ccc(/C=C/C(=O)O)cc2)c2ccc3scnc3c2)C2CCC2)cn1` [Example 93, (E)-3-(4-((E)-1-(Benzo[d]thiazol-5-yl)-2-cyclobutyl-2-(6-methoxypyridin-3-yl)vinyl)phenyl)acrylic acid], in the experiment on MCF-7 cells, the “MCF7 Viability Assay Max Response” value was “++ (++ = a single % value ≧ 40%)” and the IC50 is at most 100 nM. Besides, at ER-α in MCF-7 cells, the Emax is at least 40% and the DC50 was at most 100 nM.

In the case of `O=C(O)/C=C/c1ccc(/C(=C(\c2ccccc2F)C2CCC2)c2ccc3scnc3c2)cc1` [Example 94, (E)-3-(4-((E)-1-(Benzo[d]thiazol-5-yl)-2-cyclobutyl-2-(2-fluorophenyl)vinyl)phenyl)acrylic acid], in the experiment on MCF-7 cells, the “MCF7 Viability Assay Max Response” value is “++ (++ = a single % value ≧ 40%)” and the concentration for half-maximal inhibition (IC50) was at most 100 nM. Moreover, on ER-α in MCF-7 cells, the Emax is at least 40% and the DC50 is at most 100 nM.

For `N#Cc1ccc(/C(=C(\c2ccc(/C=C/C(=O)O)cc2)c2ccc3scnc3c2)C2CCC2)c(F)c1` [Example 95, (E)-3-(4-((E)-1-(Benzo[d]thiazol-5-yl)-2-(4-cyano-2-fluorophenyl)-2-cyclobutylvinyl)phenyl)acrylic acid], in the experiment on MCF-7 cells, the “MCF7 Viability Assay Max Response” value is on record as “++ (++ = a single % value ≧ 40%)” and the IC50 is at most 100 nM. Also, on ER-α in MCF-7 cells, the Emax is at least 40% and the DC50 is at most 100 nM.

As for `Cc1cc(C#N)ccc1/C(=C(\c1ccc(/C=C/C(=O)O)cc1)c1ccc2scnc2c1)C1CCC1` [Example 96, (E)-3-(4-((E)-1-(Benzo[d]thiazol-5-yl)-2-(4-cyano-2-methylphenyl)-2-cyclobutylvinyl)phenyl)acrylic acid], in the experiment on MCF-7 cells, the “MCF7 Viability Assay Max Response” value is “++ (++ = a single % value ≧ 40%)” and the IC50 is at most 100 nM. Further, on ER-α in MCF-7 cells, the Emax was at least 40% and the DC50 is at most 100 nM.

On to `COc1ccc(/C(=C(\c2ccc(/C=C/C(=O)O)cc2)c2ccc3scnc3c2)C2CCC2)c(C#N)c1` [Example 97, (E)-3-(4-((E)-1-(Benzo[d]thiazol-5-yl)-2-(2-cyano-4-methoxyphenyl)-2-cyclobutylvinyl)phenyl)acrylic acid], for which, in the experiment on MCF-7 cells, the “MCF7 Viability Assay Max Response” value is given as “++ (++ = a single % value ≧ 40%)” and the IC50 is at most 100 nM. Moreover, on ER-α in MCF-7 cells, the Emax is at least 40% and the DC50 is at most 100 nM.

Regarding `Cc1cccnc1/C(=C(\c1ccc(/C=C/C(=O)O)cc1)c1ccc2scnc2c1)C1CCC1` [Example 98, (E)-3-(4-((E)-1-(Benzo[d]thiazol-5-yl)-2-cyclobutyl-2-(3-methylpyridin-2-yl)vinyl)phenyl)acrylic acid], in the experiment on MCF-7 cells, the “MCF7 Viability Assay Max Response” value is “++ (++ = a single % value ≧ 40%)” and the IC50 is at most 100 nM. On ER-α in MCF-7 cells, the Emax was at least 40% and the DC50 was at most 100 nM.

With `O=C(O)/C=C/c1ccc(/C(=C(\c2ncccc2F)C2CCC2)c2ccc3scnc3c2)cc1` [Example 99, (E)-3-(4-((E)-1-(Benzo[d]thiazol-5-yl)-2-cyclobutyl-2-(3-fluoropyridin-2-yl)vinyl)phenyl)acrylic acid], in the experiment on MCF-7 cells, the “MCF7 Viability Assay Max Response” value is “++ (++ = a single % value ≧ 40%)” and the IC50 is at most 100 nM. Moreover, at ER-α in MCF-7 cells, the Emax was at least 40% and the DC50 is at most 100 nM.

With `O=C(O)/C=C/c1ccc(/C(=C(\c2ncccc2Cl)C2CCC2)c2ccc3scnc3c2)cc1` [Example 100, (E)-3-(4-((E)-1-(Benzo[d]thiazol-5-yl)-2-(3-chloropyridin-2-yl)-2-cyclobutylvinyl)phenyl)acrylic acid], in the experiment with MCF-7 cells, the “MCF7 Viability Assay Max Response” value is reported as “++ (++ = a single % value ≧ 40%)” and the IC50 is at most 100 nM. For the same compound, on ER-α in MCF-7 cells, the Emax is at least 40% and the DC50 is at most 100 nM.

For the compound `CC/C(=C(/c1ccc(/C=C/C(=O)O)cc1)c1ccc2[nH]nc(F)c2c1)c1ccc(Cl)cc1C#N` [Example 101, (E)-3-(4-((E)-2-(4-Chloro-2-cyanophenyl)-1-(3-fluoro-1H-indazol-5-yl)but-1-en-1-yl)phenyl)acrylic acid], in the experiment with MCF-7 cells, the “MCF7 Viability Assay Max Response” value was “++ (++ = a single % value ≧ 40%)” and the IC50 is at most 100 nM. At ER-α in MCF-7 cells, the Emax is at least 40% and the DC50 is at most 100 nM.
